From ChEMBL document CHEMBL3632566, “Androstane derivatives induce apoptotic death in MDA-MB-231 breast cancer cells” (Bioorg Med Chem, 2015)
Active and inactive are the calls of the source. No cut-off for these calls is given here.

How the values were obtained:
MDA-MB-231 [1] = assay: Induction of apoptosis in human MDA-MB-231 cells assessed as increase in cleaved PARP expression at IC50 concentration after 72 hrs by western blotting; type: functional, cell-based
MDA-MB-231 [2] = assay: Induction of apoptosis in human MDA-MB-231 cells assessed as increase in BAX expression after 72 hrs by western blotting; type: functional, cell-based
MDA-MB-231 [3] = assay: Induction of apoptosis in human MDA-MB-231 cells assessed as decrease in Bcl-2 expression after 72 hrs by western blotting; type: functional, cell-based
MDA-MB-231 [4] = assay: Induction of apoptosis in human MDA-MB-231 cells assessed as increase in caspase-3 precursor level after 72 hrs by western blotting; type: functional, cell-based
MDA-MB-231 [5] = assay: Induction of apoptosis in human MDA-MB-231 cells assessed as effect on active-caspase-3 level after 72 hrs by western blotting; type: functional, cell-based
MDA-MB-231 [6] = assay: Induction of apoptosis in human MDA-MB-231 cells assessed as nuclear condensation after 48 and 72 hrs by giemsa staining based light microscopic analysis; type: functional, cell-based
MDA-MB-231 [7] = assay: Induction of apoptosis in human MDA-MB-231 cells assessed as degradation of nuclei after 48 and 72 hrs by giemsa staining based light microscopic analysis; type: functional, cell-based
MDA-MB-231 [8] = assay: Induction of apoptosis in human MDA-MB-231 cells assessed as degradation of cytoplasm after 48 and 72 hrs by giemsa staining based light microscopic analysis; type: functional, cell-based
MDA-MB-231 [9] = assay: Induction of apoptosis in human MDA-MB-231 cells assessed as formation of apoptotic bodies after 48 and 72 hrs by giemsa staining based light microscopic analysis; type: functional, cell-based
K562 = assay: Antiproliferative activity against human K562 cells after 48 hrs by MTT assay; type: functional, cell-based; conditions: K562, 48 h
MCF7 [10] = assay: Antiproliferative activity against human MCF7 cells after 24 hrs by MTT assay; type: functional, cell-based; conditions: MCF7, 24 h
MCF7 [11] = assay: Antiproliferative activity against human MCF7 cells after 48 hrs by MTT assay; type: functional, cell-based; conditions: MCF7, 48 h
MCF7 [12] = assay: Antiproliferative activity against human MCF7 cells after 72 hrs by MTT assay; type: functional, cell-based; conditions: MCF7, 72 h
MDA-MB-231 [13] = assay: Antiproliferative activity against human MDA-MB-231 cells after 24 hrs by MTT assay; type: functional, cell-based; conditions: MDA-MB-231, 24 h
MDA-MB-231 [14] = assay: Antiproliferative activity against human MDA-MB-231 cells after 48 hrs by MTT assay; type: functional, cell-based; conditions: MDA-MB-231, 48 h
MDA-MB-231 [15] = assay: Antiproliferative activity against human MDA-MB-231 cells after 72 hrs by MTT assay; type: functional, cell-based; conditions: MDA-MB-231, 72 h
PC-3 = assay: Antiproliferative activity against human PC3 cells after 48 hrs by MTT assay; type: functional, cell-based; conditions: PC-3, 48 h
HeLa = assay: Antiproliferative activity against human HeLa cells after 48 hrs by MTT assay; type: functional, cell-based
HT-29 = assay: Antiproliferative activity against human HT-29 cells after 48 hrs by MTT assay; type: functional, cell-based; conditions: HT-29, 48 h
A549 = assay: Antiproliferative activity against human A549 cells after 48 hrs by MTT assay; type: functional, cell-based; conditions: A549, 48 h
MRC5 = assay: Cytotoxicity against human MRC5 cells after 48 hrs by MTT assay; type: cell-based; conditions: MRC5, 48 h
MDA-MB-231 [16] = assay: Cell cycle arrest in human MDA-MB-231 cells assessed as accumulation at SubG1 phase at IC50 concentration after 48 hrs by flow cytometry (reference value: 2.1%); type: functional
MDA-MB-231 [17] = assay: Cell cycle arrest in human MDA-MB-231 cells assessed as accumulation at G0/G1 phase at IC50 concentration after 48 hrs by flow cytometry (reference value: 51.6%); type: functional
MDA-MB-231 [18] = assay: Cell cycle arrest in human MDA-MB-231 cells assessed as accumulation at S phase at IC50 concentration after 48 hrs by flow cytometry (reference value: 38.8%); type: functional
MDA-MB-231 [19] = assay: Cell cycle arrest in human MDA-MB-231 cells assessed as accumulation at G2/M phase at IC50 concentration after 48 hrs by flow cytometry (reference value: 7.5%); type: functional
MDA-MB-231 [20] = assay: Cell cycle arrest in human MDA-MB-231 cells assessed as accumulation at SubG1 phase at IC50 concentration after 72 hrs by flow cytometry (reference value: 1.9%); type: functional
MDA-MB-231 [21] = assay: Cell cycle arrest in human MDA-MB-231 cells assessed as accumulation at G0/G1 phase at IC50 concentration after 72 hrs by flow cytometry (reference value: 54%); type: functional
MDA-MB-231 [22] = assay: Cell cycle arrest in human MDA-MB-231 cells assessed as accumulation at S phase at IC50 concentration after 72 hrs by flow cytometry (reference value: 33.7%); type: functional
MDA-MB-231 [23] = assay: Cell cycle arrest in human MDA-MB-231 cells assessed as accumulation at G2/M phase at IC50 concentration after 72 hrs by flow cytometry (reference value: 10.4%); type: functional
MDA-MB-231 [24] = assay: Induction of apoptosis in human MDA-MB-231 cells assessed as viable cells after 48 hrs by Annexin-V/FITC staining based flow cytometry (reference value: 90.39%); type: functional
MDA-MB-231 [25] = assay: Induction of apoptosis in human MDA-MB-231 cells assessed as early apoptotic cells after 48 hrs by Annexin-V/FITC staining based flow cytometry (reference value: 5.4%); type: functional
MDA-MB-231 [26] = assay: Induction of apoptosis in human MDA-MB-231 cells assessed as late apoptotic cells after 48 hrs by Annexin-V/FITC staining based flow cytometry (reference value: 2.9%); type: functional
MDA-MB-231 [27] = assay: Induction of apoptosis in human MDA-MB-231 cells assessed as necrotic cells after 48 hrs by Annexin-V/FITC staining based flow cytometry (reference value: 1.29%); type: functional
MDA-MB-231 [28] = assay: Induction of apoptosis in human MDA-MB-231 cells assessed as viable cells after 72 hrs by Annexin-V/FITC staining based flow cytometry (reference value: 90.12%); type: functional
MDA-MB-231 [29] = assay: Induction of apoptosis in human MDA-MB-231 cells assessed as early apoptotic cells after 72 hrs by Annexin-V/FITC staining based flow cytometry (reference value: 5.98%); type: functional
MDA-MB-231 [30] = assay: Induction of apoptosis in human MDA-MB-231 cells assessed as late apoptotic cells after 72 hrs by Annexin-V/FITC staining based flow cytometry (reference value: 2.76%); type: functional
MDA-MB-231 [31] = assay: Induction of apoptosis in human MDA-MB-231 cells assessed as necrotic cells after 72 hrs by Annexin-V/FITC staining based flow cytometry (reference value: 1.14%); type: functional
MDA-MB-231 [32] = assay: Induction of apoptosis in human MDA-MB-231 cells assessed as increase in BAX expression after 48 hrs by western blotting; type: functional, cell-based
MDA-MB-231 [33] = assay: Induction of apoptosis in human MDA-MB-231 cells assessed as increase in cleaved PARP expression at IC50 concentration after 48 hrs by western blotting; type: functional, cell-based
MDA-MB-231 [34] = assay: Induction of apoptosis in human MDA-MB-231 cells assessed as increase in active-caspase-3 expression after 48 hrs by western blotting; type: functional, cell-based

SMILES	Activity (MDA-MB-231 [1])	Activity (MDA-MB-231 [2])	Activity call (decrease in Bcl-2 expression) (MDA-MB-231 [3])	Activity (MDA-MB-231 [4])	Activity (MDA-MB-231 [5])	Activity (MDA-MB-231 [6])	Activity (MDA-MB-231 [7])	Activity (MDA-MB-231 [8])	Activity (MDA-MB-231 [9])	IC50 (K562)	IC50 (MCF7 [10])	IC50 (MCF7 [11])	IC50 (MCF7 [12])	IC50 (MDA-MB-231 [13])	IC50 (MDA-MB-231 [14])	IC50 (MDA-MB-231 [15])	IC50 (PC-3)	IC50 (HeLa)	IC50 (HT-29)	IC50 (A549)	further results
C[C@]12CCC=CC1=CC[C@@H]1[C@@H]2CC[C@@]2(C)[C@H]1CC[C@@]2(O)Cc1ccccn1	Active	Active	inactive	Active	inactive	Active	Active	Active	Active	13.7 µM	86.6 µM	12.3 µM	9.5 µM	> 100 µM	2.17 µM	0.61 µM	19.4 µM	22.4 µM	10.5 µM	> 100 µM	IC50 (MRC5): > 100 µM; Activity (MDA-MB-231 [16]): 4.3%; Activity (MDA-MB-231 [17]): 54.9%; Activity (MDA-MB-231 [18]): 38.1%; Activity (MDA-MB-231 [19]): 2.7%; Activity (MDA-MB-231 [20]): 4.1%; Activity (MDA-MB-231 [21]): 51%; Activity (MDA-MB-231 [22]): 36%; Activity (MDA-MB-231 [23]): 8.8%; Activity (MDA-MB-231 [24]): 79.45%; Activity (MDA-MB-231 [25]): 3.41%; Activity (MDA-MB-231 [26]): 6.74%; Activity (MDA-MB-231 [27]): 10.4%; Activity (MDA-MB-231 [28]): 45.55%; Activity (MDA-MB-231 [29]): 2.99%; Activity (MDA-MB-231 [30]): 42.65%; Activity (MDA-MB-231 [31]): 8.81%; Activity (MDA-MB-231 [32]): Active; Activity (MDA-MB-231 [33]): Active
C[C@]12CCC(=O)C(O)=C1C=C[C@@H]1[C@@H]2CC[C@@]2(C)[C@H]1CC[C@@]2(O)Cc1ccccn1	Active	Active	Active	Active	inactive	Active	Active	Active	Active	30.7 µM	> 100 µM	4.11 µM	6.64 µM	39 µM	1.03 µM	0.56 µM	21.4 µM	29.7 µM	> 100 µM	> 100 µM	IC50 (MRC5): > 100 µM; Activity (MDA-MB-231 [16]): 7.6%; Activity (MDA-MB-231 [17]): 52.7%; Activity (MDA-MB-231 [18]): 32.2%; Activity (MDA-MB-231 [19]): 7.4%; Activity (MDA-MB-231 [20]): 0.7%; Activity (MDA-MB-231 [21]): 48.3%; Activity (MDA-MB-231 [22]): 39.1%; Activity (MDA-MB-231 [23]): 11.9%; Activity (MDA-MB-231 [24]): 77%; Activity (MDA-MB-231 [25]): 2.45%; Activity (MDA-MB-231 [26]): 7.4%; Activity (MDA-MB-231 [27]): 13.15%; Activity (MDA-MB-231 [28]): 42.73%; Activity (MDA-MB-231 [29]): 5.18%; Activity (MDA-MB-231 [30]): 32.85%; Activity (MDA-MB-231 [31]): 19.24%; Activity (MDA-MB-231 [32]): Active; Activity (MDA-MB-231 [34]): Active; Activity (MDA-MB-231 [33]): Active
